The test system of the test is Jurkat cells. Put plainly: Caspase 3/7 assay: apoptosis of Jurkat cells co-cultured with IFN-γ-treated A549 cells (PD-1/PD-L1 binding). It is filed as cell-based. The settings on record: Homo sapiens; for IC50: Jurkat cells co-cultured with A549 cells pre-cultured with IFN-γ and test compound, read-out: IC50 (50% inhibition concentration of Caspase 3/7 activity). An excerpt:
The supernatants of each culture liquid containing A549 cells expressing PD-L1 pre-cultured with the addition of IFN-γ or human acute T-cell leukemia cell-derived Jurkat cells expressing PD-1 pre-cultured with the addition of Phorbol 12-myristate 13-Acetate (hereinafter, referred to as “PMA”: Sigma Cat #1585) and phytohemagglutinin-L (hereinafter, referred to as “PHA-L”: Roche Cat #11249738001) were removed, the culture liquids were co-cultured in new medium. The Caspase 3/7 activity of the co-cultured Jurkat cells was measured, and the measured activity was used as an index of apoptosis. Each test compound was added into the A549 cell culture liquid during the pre-culture.
(1) A549 cells were suspended in DMEM medium at 1×10^5 cells/mL to prepare an A549 cell suspension, and the A549 cell suspension was dispensed into each well a 6 well plate in an amount of 3 mL.
(2) Separately, Jurkat cells were suspended in RPMI medium at 3×10^5 cells/mL to prepare a Jurkat cell suspension, and the Jurkat cell suspension was dispensed into a T25 flask in an amount of 5 mL.
(3) The 6-well plate of the above step (1) and the T25 flask of the above step (2) were incubated together in a CO2 incubator (at 37° C. and 5% CO2) for 24±2 hours.
(1) To 3 mL of the A549 cell culture liquid were added IFN-γ (25 ng/mL) and a test compound, and the cell culture liquid was continuously cultured. The 50 mmol/L solution of the test compound in DMSO was diluted to 100 times with DMEM medium, and then the diluted solution was added as test compound group in an amount of 3 μL, 6 μL or 12 μL (final concentration: 0.5 μmol/L, 1.0 μmol/L or 2 μmol/L). In the control group, DMSO diluted to 100 times with DMEM medium was added in an amount of 12 μL. (2) Separately, to the Jurkat cell culture liquid were added PMA (final concentration: 12.5 ng/mL) and PHA (final concentration: 250 ng/mL), and the cell culture liquid was continuously cultured. [Day 3]
Cells were separated from A549 cell culture liquid with Cell Dissociation Solution Non-enzymatic (Sigma Cat No. C5914-100ML), and the cell culture liquid was centrifuged at 300×g for 5 minutes and the supernatant thereof was removed, and then the cells were suspended in RPMI medium at 4×10^5 cells/mL to prepare an A549 cell suspension.
The Jurkat cell culture liquid was centrifuged at 300×g for 5 minutes and the supernatant thereof was removed, and then the cells therein were suspended in RPMI medium at 4×10^4 cells/mL to prepare a Jurkat cell suspension.
0.25 mL of the prepared A549 cell suspension and 0.25 mL of the prepared Jurkat cell suspension (the ratio of the number of the cells is 10:1) were added into each well in a 24-well plate. 0.25 mL of A549 cells and 0.25 mL of RPMI medium were mixed and the mixture was cultured at 37° C. and 5% CO2 to prepare an A549 blank containing only A549 cells which is not co-cultured with Jurkat cells. The PD-L1 expression in A549 cells after 2 days from IFN-γ treatment and the PD-1 expression in Jurkat cells stimulated with PMA and PHA were confirmed by staining the cells with anti-CD274-PC7 antibody (PD-L1) or anti-CD279-FITC antibody (PD-1, eBioscience Cat No. 11-9969-42) in a similar procedure to that of Test Example 2 and measuring the stained cells with a flow cytometer.
The cells were cultured under the following 6 conditions.
(IF−Comp−): Co-culture of A549 cells pre-cultured without the addition of IFN-γ and the test compound as well as Jurkat cells
(IF+Comp−): Co-culture of A549 cells pre-cultured with the addition of IFN-γ and no test compound as well as Jurkat cells
(IF+Comp+): Co-culture of A549 cells pre-cultured with the addition of IFN-γ and the test compound as well as Jurkat cells
(A:IF−Comp−): Culture of only […] A549 cells pre-cultured without the addition of IFN-γ and the test compound
(A:IF+Comp−): Culture of only A549 cells pre-cultured with the addition of IFN-γ and no test compound […]

Consider `O=C(Nc1ccc(Oc2ccc(C(F)(F)F)cc2)cc1)C1CCCN(C(=O)c2ccc([N+](=O)[O-])cc2)C1` (stereo not shown) [Example 2, 1-(4-Nitrobenzoyl)-N-(4-(4-(trifluoromethyl)phenoxy)phenyl) piperidine-3-carboxamide], for which the IC50 came out at 1100 nM.
The same measure, in the same setting: the same measure for `COc1cc(C(=O)N2CCCC(C(=O)Nc3ccc(Oc4ccc(C(F)(F)F)cc4)cc3)C2)ccc1O` (stereo not shown) [Example 3, 1-(4-Hydroxy-3-methoxybenzoyl)-N-(4-(4-(trifluoromethyl)phenoxy)phenyl)piperidine-3-carboxamide]: 870 nM.
In the case of `O=C(Nc1ccc(Oc2ccc(S(F)(F)(F)(F)F)cc2)cc1)C1CCCN(C(=O)c2ccc([N+](=O)[O-])cc2)C1` (stereo not shown) [Example 5, 1-(4-Nitrobenzoyl)-N-(4-(4-(pentafluorosulfanyl)phenoxy)phenyl)piperidine-3-carboxamide], the IC50 is 520 nM. For the same compound, the activity at 0.25 µM (Jurkat, 0.25 μM, control (DMSO) defined as 100%) was 81.5%. The same compound came in with an activity at 0.5 µM (Jurkat, 0.5 μM, control (DMSO) defined as 100%) of 55.3%. Besides, under “Jurkat, 1 μM, control (DMSO) defined as 100%”, the activity at 1 µM came out at 32.1%.
For the compound `COc1cc(C(=O)N2CCCC(C(=O)Nc3ccc(Oc4ccc(S(F)(F)(F)(F)F)cc4)cc3)C2)ccc1O` (stereo not shown) [Example 6, 1-(4-Hydroxy-3-methoxybenzoyl)-N-(4-(4-(pentafluorosulfanyl)phenoxy)phenyl)piperidine-3-carboxamide], the IC50 came out at 740 nM.

(Values after US11591297B2, “Compound having PD-L1 expression-suppressing action” (TOHOKU UNIVERSITY, priority 2019, dated 2023).)
